Results published in patent publication US12559492B2, “BRAF degraders” (C4 Therapeutics, Inc., priority 2020, dated 2026).

Biological target: BRAF^V600E protein (Homo sapiens, UniProt P15056, V600E)
Test: HiBiT cellular BRAF V600E degradation assay
Format: cell-based
Conditions: 24 h incubation; for DC50: A375.10 cells (HiBiT tag knocked in at N-terminal of BRAF V600E), concentration at which 50% of total cellular BRAF V600E is degraded; for Emax: read-out: HiBit 24 h Emax
Excerpt: DMEM no-phenol red medium supplemented with L-glutamine was purchased from (Corning). Fetal bovine serum (FBS) was purchased from Gibco (Grand Island, NY, USA). Nano-Glo® HiBiT Lytic Assay Buffer & Reagents were purchased from Promega (Madison, WI, USA). […] Cell culture flasks and 384-well black flat-bottom polystyrene TC-treated microplates were acquired from Corning (Corning, NY, USA).
HiBiT Cellular BRAFv^600E Degradation Assay
Prior to the assay, the A375.10 cell line is maintained in DMEM no-phenol red medium supplemented with 10% fetal bovine serum (FBS). […] Briefly, test compounds were added to the 384-well plate from a top concentration of 10 μM with 11 half log dilutions of compound, plated in duplicate. Then, 30 uL of a suspension of A375.10 cell lines was dispensed into columns 1-24 of the 384-well plates at a cell density of 7500 cells per well. The plates were kept at 37° C. with 5% CO2 for the duration of the assay (6 or 24 hr). After the desired incubation time with compound, 30 uL of Nano-Glo® HiBiT Lytic Buffer containing LgBiT protein (diluted 1:100) and luminescence substrate (diluted 1:50) were added to the cells in columns 1-23 of the assay plate. The plate was the incubated for 30 min on the bench at room temperature. Finally, HiBiT luminescence signal was acquired on EnVision™ Multilabel Reader (PerkinElmer, Santa Clara, CA, USA).
Quantification of luminescence responses measured in the presence of compound were normalized to a high signal/no degradation control (untreated cells+lytic detection reagent) and a low signal/full degradation control (untreated cells, no lytic detection reagent). Data were analyzed with a 4-parameter logistic fit to generate sigmoidal dose-response curves. […] The Emax, or maximum effect of each compound, represents the amount of residual protein remaining in the cell following compound treatment.

[1] = A375.10 cells, Emax = amount of residual protein remaining in the cell after compound treatment

Sequence of BRAF^V600E protein (P15056 whole entry V600E): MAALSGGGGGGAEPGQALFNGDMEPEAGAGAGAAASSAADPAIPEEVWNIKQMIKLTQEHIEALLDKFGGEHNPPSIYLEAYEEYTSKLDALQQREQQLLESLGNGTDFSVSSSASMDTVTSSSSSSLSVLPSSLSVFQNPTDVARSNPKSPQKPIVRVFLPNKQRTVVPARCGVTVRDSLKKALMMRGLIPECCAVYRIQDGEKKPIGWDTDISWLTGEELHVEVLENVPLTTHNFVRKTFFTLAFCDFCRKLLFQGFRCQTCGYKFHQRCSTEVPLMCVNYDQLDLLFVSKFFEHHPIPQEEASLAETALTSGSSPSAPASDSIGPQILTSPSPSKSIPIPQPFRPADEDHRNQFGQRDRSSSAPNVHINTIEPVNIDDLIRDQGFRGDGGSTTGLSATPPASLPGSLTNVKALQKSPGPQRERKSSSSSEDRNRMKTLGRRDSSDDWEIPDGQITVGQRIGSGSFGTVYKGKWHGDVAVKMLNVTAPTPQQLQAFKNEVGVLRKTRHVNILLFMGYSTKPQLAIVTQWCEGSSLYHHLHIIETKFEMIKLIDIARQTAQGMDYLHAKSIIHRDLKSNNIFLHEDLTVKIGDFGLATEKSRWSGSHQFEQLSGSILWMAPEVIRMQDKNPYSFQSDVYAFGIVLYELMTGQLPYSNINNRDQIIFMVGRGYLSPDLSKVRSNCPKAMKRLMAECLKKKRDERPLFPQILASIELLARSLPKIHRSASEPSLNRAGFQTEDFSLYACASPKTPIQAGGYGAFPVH

Structure (SMILES) | DC50 [nM] | Emax [1] [%] | HiBit 24 h Emax [1] [%]
CCN(C)S(=O)(=O)Nc1ccc(F)c(C(=O)c2c[nH]c3ncc(-c4cnc(N5CCN(C(=O)CC6(O)CCN(c7ccc(C8CCC(=O)NC8=O)cc7F)CC6)CC5)nc4)cc23)c1F (racemic) [Example 158, 5-[2-[4-[2-[1-[4-(2,6-dioxo-3-piperidyl)-2-fluoro-phenyl]-4-hydroxy-4-piperidyl]acetyl]piperazin-1-yl]pyrimidin-5-yl]-3-[3-[[ethyl(methyl)sulfamoyl]amino]-2,6-difluoro-benzoyl]-1H-pyrrolo[2,3-b]pyridine] | 2.73 | 9.38 | –
CCN(C)S(=O)(=O)Nc1ccc(F)c(C(=O)c2c[nH]c3ncc(-c4ccc(N5C[C@H]6CC[C@@H](C5)N6C(=O)CN5CCC(c6ccc(NC7CCC(=O)NC7=O)cc6)CC5)nc4)cc23)c1F (mixture of isomers) [Example A71, 3-[3-[[Ethyl(methyl)sulfamoyl]amino]-2,6-difluorobenzoyl]-5-[6-[rac-(1R,5S)-8-[2-[4-[4-[(2,6-dioxopiperidin-3-yl)amino]phenyl]piperidin-1-yl]acetyl]-3,8-diazabicyclo[3.2.1]octan-3-yl]pyridin-3-yl]-1H-pyrrolo[2,3-b]pyridine] | 28 | 23 | –
O=C1CCC(Nc2ccc(C3CCN(CC(=O)N4[C@@H]5CCC[C@H]4CN(c4ccc(-c6cnc7[nH]cc(C(=O)c8c(F)ccc(NS(=O)(=O)N9CCCC9)c8F)c7c6)cn4)C5)CC3)cc2)C(=O)N1 (mixture of isomers) [Example A84, N-[2,4-Difluoro-3-[5-[6-[rac-(1R,5S)-9-[2-[4-[4-[(2,6-dioxopiperidin-3-yl)amino]phenyl]piperidin-1-yl]acetyl]-3,9-diazabicyclo[3.3.1]nonan-3-yl]pyridin-3-yl]-1H-pyrrolo[2,3-b]pyridine-3-carbonyl]phenyl]pyrrolidine-1-sulfonamide] | 11 | 11 | –
CCN(C)S(=O)(=O)Nc1ccc(F)c(C(=O)c2c[nH]c3ncc(-c4cnc(N5CCN(C(=O)CC6CCC(c7ccc(NC8CCC(=O)NC8=O)cc7)CC6)CC5)nc4)cc23)c1F (single isomer, unassigned) [Example 35, 5-[2-[4-[2-[4-[4-[(2,6-dioxo-3-piperidyl)amino]phenyl]cyclohexyl]acetyl]piperazin-1-yl]pyrimidin-5-yl]-3-[3-[[ethyl(methyl)sulfamoyl]amino]-2,6-difluoro-benzoyl]-1H-pyrrolo[2,3-b]pyridine] | 25 | 23.1 | –
CCN(C)S(=O)(=O)Nc1ccc(F)c(C(=O)c2c[nH]c3ncc(-c4cnc(N5CCN(C(=O)CC6CCC(c7ccc(NC8CCC(=O)NC8=O)cc7)CC6)CC5)nc4)cc23)c1F (single isomer, unassigned) [Example 36, 5-[2-[4-[2-[4-[4-[(2,6-dioxo-3-piperidyl)amino]phenyl]cyclohexyl]acetyl]piperazin-1-yl]pyrimidin-5-yl]-3-[3-[[ethyl(methyl)sulfamoyl]amino]-2,6-difluoro-benzoyl]-1H-pyrrolo[2,3-b]pyridine] | 21 | – | 16.12
CCN(C)S(=O)(=O)Nc1ccc(F)c(C(=O)c2c[nH]c3ncc(-c4cnc(N5CCN(C(=O)CC6(O)CCN(c7ccc(N[C@H]8CCC(=O)NC8=O)cc7F)CC6)CC5)nc4)cc23)c1F (single isomer, unassigned) [Example 166] | 2.82 | 8.9 | –
CCN(C)S(=O)(=O)Nc1ccc(F)c(C(=O)c2c[nH]c3ncc(-c4ccc(N5CCN(C(=O)CN6CCC(c7ccc(NC8CCC(=O)NC8=O)cc7)C(F)(F)C6)CC5)nc4)cc23)c1F (stereo in doubt) [Example 77, 5-[6-[4-[2-[(4R)-4-[4-[(2,6-dioxo-3-piperidyl)amino]phenyl]-3,3-difluoro-1-piperidyl]acetyl]piperazin-1-yl]-3-pyridyl]-3-[3-[[ethyl(methyl)sulfamoyl]amino]-2,6-difluoro-benzoyl]-1H-pyrrolo[2,3-b]pyridine] | 3.49 | 9.19 | –
CCCS(=O)(=O)Nc1ccc(F)c(C(=O)c2c[nH]c3ncc(-c4cnc(N5CCN(C(=O)CN6CCC(c7ccc(NC8CCC(=O)NC8=O)cc7)CC6)CC5)nc4)cc23)c1F (stereo not drawn) [Example 1, N-[3-[5-[2-[4-[2-[4-[4-[(2,6-dioxo-3-piperidyl)amino]phenyl]-1-piperidyl]acetyl]piperazin-1-yl]pyrimidin-5-yl]-1H-pyrrolo[2,3-b]pyridine-3-carbonyl]-2,4-difluoro-phenyl]propane-1-sulfonamide] | 0.79 | 7.81 | –
CCCS(=O)(=O)Nc1ccc(F)c(C(=O)c2c[nH]c3ncc(-c4cnc(N5CCN(C(=O)CN6CCC(c7ccc(OC8CCC(=O)NC8=O)cc7)CC6)CC5)nc4)cc23)c1F (stereo not drawn) [Example 2, N-[3-[5-[2-[4-[2-[4-[4-[(2,6-dioxo-3-piperidyl)oxy]phenyl]-1-piperidyl]acetyl]piperazin-1-yl]pyrimidin-5-yl]-1H-pyrrolo[2,3-b]pyridine-3-carbonyl]-2,4-difluoro-phenyl]propane-1-sulfonamide] | 12.2 | 7.81 | –
CCCS(=O)(=O)Nc1ccc(F)c(C(=O)c2c[nH]c3ncc(-c4ccc(N5CCN(C(=O)CN6CCC(c7ccc(NC8CCC(=O)NC8=O)cc7)CC6)CC5)nc4)cc23)c1F (stereo not drawn) [Example 3, N-[3-[5-[6-[4-[2-[4-[4-[(2,6-dioxo-3-piperidyl)amino]phenyl]-1-piperidyl]acetyl]piperazin-1-yl]-3-pyridyl]-1H-pyrrolo[2,3-b]pyridine-3-carbonyl]-2,4-difluoro-phenyl]propane-1-sulfonamide] | 3.04 | 9.6 | –
CC(C)S(=O)(=O)Nc1ccc(F)c(C(=O)c2c[nH]c3ncc(-c4cnc(N5CCN(C(=O)CN6CCC(c7ccc(NC8CCC(=O)NC8=O)cc7)CC6)CC5)nc4)cc23)c1F (stereo not drawn) [Example 5, N-[3-[5-[2-[4-[2-[4-[4-[(2,6-dioxo-3-piperidyl)amino]phenyl]-1-piperidyl]acetyl]piperazin-1-yl]pyrimidin-5-yl]-1H-pyrrolo[2,3-b]pyridine-3-carbonyl]-2,4-difluoro-phenyl]propane-2-sulfonamide] | 3.94 | 8.8 | –
CC(C)S(=O)(=O)Nc1ccc(F)c(C(=O)c2c[nH]c3ncc(-c4cnc(N5CCN(C(=O)CN6CCC(c7ccc(NC8CCC(=O)NC8=O)cc7F)CC6)CC5)nc4)cc23)c1F (stereo not drawn) [Example 6, N-[3-[5-[2-[4-[2-[4-[4-[(2,6-dioxo-3-piperidyl)amino]-2-fluoro-phenyl]-1-piperidyl]acetyl]piperazin-1-yl]pyrimidin-5-yl]-1H-pyrrolo[2,3-b]pyridine-3-carbonyl]-2,4-difluoro-phenyl]propane-2-sulfonamide] | 5.59 | 7.96 | –
CC(C)S(=O)(=O)Nc1ccc(F)c(C(=O)c2c[nH]c3ncc(-c4cnc(N5CCN(C(=O)CN6CCC(c7ccc(OC8CCC(=O)NC8=O)cc7)CC6)CC5)nc4)cc23)c1F (stereo not drawn) [Example 7, N-[3-[5-[2-[4-[2-[4-[4-[(2,6-dioxo-3-piperidyl)oxy]phenyl]-1-piperidyl]acetyl]piperazin-1-yl]pyrimidin-5-yl]-1H-pyrrolo[2,3-b]pyridine-3-carbonyl]-2,4-difluoro-phenyl]propane-2-sulfonamide] | 12.5 | 10.3 | –
CC(C)S(=O)(=O)Nc1ccc(F)c(C(=O)c2c[nH]c3ncc(-c4cnc(N5CCN(C(=O)CN6CCC(c7ccc(C8CCC(=O)NC8=O)cc7)CC6)CC5)nc4)cc23)c1F (stereo not drawn) [Example 8, N-[3-[5-[2-[4-[2-[4-[4-(2,6-dioxo-3-piperidyl)phenyl]-1-piperidyl]acetyl]piperazin-1-yl]pyrimidin-5-yl]-1H-pyrrolo[2,3-b]pyridine-3-carbonyl]-2,4-difluoro-phenyl]propane-2-sulfonamide] | 4.67 | 2.37 | –

Second part, the compound after the results:

DC50 [nM] | Emax [1] [%] | HiBit 24 h Emax [1] [%] | Structure (SMILES)
1.99 | 7.84 | – | [2H][C@@]1(c2ccc(N3CCC(O)(CC(=O)N4CCN(c5ncc(-c6cnc7[nH]cc(C(=O)c8c(F)ccc(NS(=O)(=O)N(C)CC)c8F)c7c6)cn5)CC4)CC3)c(F)c2)CCC(=O)NC1=O (single isomer, unassigned) [Example 158c]
205 | 11.6 | – | [2H][C@]1(c2ccc(N3CCC(O)(CC(=O)N4CCN(c5ncc(-c6cnc7[nH]cc(C(=O)c8c(F)ccc(NS(=O)(=O)N(C)CC)c8F)c7c6)cn5)CC4)CC3)c(F)c2)CCC(=O)NC1=O (single isomer, unassigned) [Example 158d]
4 | 6 | – | CCN(C)S(=O)(=O)Nc1ccc(F)c(C(=O)c2c[nH]c3ncc(-c4cnc(N5CCN(C(=O)CN6CCC(c7ccc(N[C@@H]8CCC(=O)NC8=O)cc7)CC6)CC5)nc4)cc23)c1F (single isomer, unassigned) [Example A103]
4 | 7 | – | CCN(C)S(=O)(=O)Nc1ccc(F)c(C(=O)c2c[nH]c3ncc(-c4cnc(N5CCN(C(=O)CN6CCC(c7ccc(N[C@H]8CCC(=O)NC8=O)cc7)CC6)CC5)nc4)cc23)c1F (single isomer, unassigned) [Example A111]
